This is an account of results in patent US12161753B2, “Sustained release biodegradable intracanalicular inserts comprising a hydrogel and an active agent” (OCULAR THERAPEUTIX, INC., priority 2020, dated 2024).

“And” between values parts separate entries of the source, which are not always exact repeats. Identical values can stand only once. Like-named read-outs stand apart in the source and are kept apart here.

In one data set the test system is immunomodulation. The settings on record: Tang-Liu and Acheampong, Clin. Pharmacokinet. 44(3); cited from earlier work.
Data set [1] is described as follows: Example 3.2 proof-of-concept PK study: tear fluid concentration and drug released from inserts. Type of data set: in vivo, beagle dogs. The settings on record: beagle; insert 0.44 mg cyclosporine, 4a20K SG/trilysine; over 32 days. The text has this: Inserts were removed at 32 days to determine the amount of remaining drug compared to the administered dose.

For data set [2] the following is noted: for Cyclosporine per insert (left in removed insert), OD: beagles, initial dose 671±13 μg.
A short description of data set [3]: Particle size of cyclosporine by laser diffraction (effect of surfactants). Type of data set: physicochemical. The note with it: no surfactant.
For data set [4] the following is noted: beagle, insert 0.7 mg cyclosporine, 4a20K SAZ/trilysine.

As for `CC=CCC(C)C(O)C1C(=O)NC(CC)C(=O)N(C)CC(=O)N(C)C(CC(C)C)C(=O)NC(C(C)C)C(=O)N(C)C(CC(C)C)C(=O)NC(C)C(=O)NC(C)C(=O)N(C)C(CC(C)C)C(=O)N(C)C(CC(C)C)C(=O)N(C)C(C(C)C)C(=O)N1C` (centres unmarked) [Cyclosporine, 30-ethyl-33-(1-hydroxy-2-methylhex-4-enyl)-1,4,7,10,12,15,19,25,28-nonamethyl-6,9,18,24-tetrakis(2-methylpropyl)-3,21-di(propan-2-yl)-1,4,7,10,13,16,19,22,25,28,31-undecazacyclotritriacontane-2,5,8,11,14,17,20,23,26,29,32-undecone], the “Cyclosporine concentration considered to be required for immunomodulation” value in the data set with immunomodulation was 0.236 µg/mL. Further, the “Estimated daily delivered dose” value in data set [1] was 6.3 µg/day; in data set [4] (over 6 weeks), 8.8 µg/day. Further, the Released amount in data set [2] (beagle, insert 0.67 mg cyclosporine, 4a20K SG/trilysine, 28 days) came to 3.4 µg; in data set [2] (beagle, insert 0.67 mg cyclosporine, 4a20K SG/trilysine, 50 days), 3.5 µg. Moreover, the “Daily estimated delivered dose” value in data set [2] (beagle, insert 0.67 mg cyclosporine, 4a20K SG/trilysine, over 28 and 50 days) is “approximately 3.5 μg/day”. Moreover, the “Cyclosporine per insert (left in removed insert), OD” value was 596 µg in data set [2] (insert removed at Day 28, single inserts); 451 µg and 520 µg and 521 µg in data set [2] (insert removed at Day 50, single inserts). In addition, the “D10 [Average]” value in data set [3] (in DIW) was 4 μm; in data set [3] (in PBS), 4.1 μm. The “Average amount of cyclosporine released in 6 weeks” value in data set [4] (inserts removed at 6 weeks) turned out to be 0.37 mg.
